One assay addresses T1, HDAC6 enzyme (Homo sapiens, UniProt Q9UBN7).
T1 construct: transducing full length HDAC6 gene into Sf-9 insect cells; GST; purchased SignalChem; host or cells: Sf-9 insect cells
T1 sequence (Q9UBN7 1-1215): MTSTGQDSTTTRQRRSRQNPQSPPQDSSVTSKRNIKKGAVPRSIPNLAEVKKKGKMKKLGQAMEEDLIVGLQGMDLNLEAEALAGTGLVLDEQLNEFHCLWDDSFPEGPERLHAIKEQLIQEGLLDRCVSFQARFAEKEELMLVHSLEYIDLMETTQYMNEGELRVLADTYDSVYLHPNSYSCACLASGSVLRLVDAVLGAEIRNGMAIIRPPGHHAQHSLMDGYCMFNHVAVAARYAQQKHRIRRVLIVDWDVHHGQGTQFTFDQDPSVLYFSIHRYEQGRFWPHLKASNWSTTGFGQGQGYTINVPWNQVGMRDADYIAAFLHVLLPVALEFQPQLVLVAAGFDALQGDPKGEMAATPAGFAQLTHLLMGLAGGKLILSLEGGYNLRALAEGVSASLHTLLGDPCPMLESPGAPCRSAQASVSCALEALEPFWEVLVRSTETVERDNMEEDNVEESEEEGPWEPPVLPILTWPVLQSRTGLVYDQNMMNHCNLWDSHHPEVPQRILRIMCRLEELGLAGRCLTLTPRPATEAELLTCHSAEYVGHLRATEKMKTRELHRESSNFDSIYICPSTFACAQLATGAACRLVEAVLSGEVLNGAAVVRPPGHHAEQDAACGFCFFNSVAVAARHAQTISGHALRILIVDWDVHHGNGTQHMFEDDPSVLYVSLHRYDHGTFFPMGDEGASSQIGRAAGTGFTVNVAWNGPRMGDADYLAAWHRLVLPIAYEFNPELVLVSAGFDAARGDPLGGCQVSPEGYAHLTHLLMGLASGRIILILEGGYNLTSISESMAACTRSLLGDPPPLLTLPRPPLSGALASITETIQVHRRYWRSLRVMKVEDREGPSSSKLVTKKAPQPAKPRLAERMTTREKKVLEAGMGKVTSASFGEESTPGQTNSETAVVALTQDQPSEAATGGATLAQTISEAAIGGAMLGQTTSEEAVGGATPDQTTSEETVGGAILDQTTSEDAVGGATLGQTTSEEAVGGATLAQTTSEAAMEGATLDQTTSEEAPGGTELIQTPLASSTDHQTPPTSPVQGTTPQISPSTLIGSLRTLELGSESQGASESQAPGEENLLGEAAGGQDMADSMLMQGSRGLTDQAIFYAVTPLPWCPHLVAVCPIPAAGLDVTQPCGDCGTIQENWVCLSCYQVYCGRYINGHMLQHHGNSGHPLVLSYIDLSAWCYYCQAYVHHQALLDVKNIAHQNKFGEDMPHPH
Put plainly: HDAC6 enzyme inhibitory activity (HDAC-Glo I/II Assay kit). It is filed as biochemical. To be noted: 10 μM; wells without enzyme = 100% inhibition. In short, it runs like this:
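Luminescence read-out after 20 min reaction with HDAC-Glo substrate-developer, following 60 min room-temperature preincubation of compound with Sf-9-expressed, GST-purified full-length enzyme. Inhibition is relative to no-enzyme wells set as 100%.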
Turning to `O=C1c2cc(-c3nnc(C(F)F)o3)ccc2CN1N1CCC(F)(F)CC1c1ccccc1` (stereo not drawn) [Example 554, 6-(5-(difluoromethyl)-1,3,4-oxadiazol-2-yl)-2-(4,4-difluoro-2-phenylpiperidin-1-yl)isoindolin-1-one (optical isomer)], the “HDAC6 inhibitory rate (%) (10 μM)” value is 100%.

With `O=C1c2cc(-c3nnc(C(F)F)o3)ccc2CN1N1CCC(F)(F)CC1c1ccccc1` (stereo not drawn) [Example 555, 6-(5-(difluoromethyl)-1,3,4-oxadiazol-2-yl)-2-(4,4-difluoro-2-phenylpiperidin-1-yl)isoindolin-1-one (optical isomer)], the “HDAC6 inhibitory rate (%) (10 μM)” value is on record as 100%.

Consider `O=C1c2cc(-c3nnc(C(F)F)o3)ccc2CN1N1CCC(F)(F)CC1c1cccc(F)c1` (stereo not drawn) [Example 562, 2-(4,4-difluoro-2-(3-fluorophenyl)piperidin-1-yl)-6-(5-(difluoromethyl)-1,3,4-oxadiazol-2-yl)isoindolin-1-one (optical isomer)], for which the “HDAC6 inhibitory rate (%) (10 μM)” value worked out at 99%.

As to `O=C1c2cc(-c3nnc(C(F)F)o3)ccc2CN1N1CCC(F)(F)CC1c1cccc(F)c1` (stereo not drawn) [Example 565, 2-(4,4-difluoro-2-(3-fluorophenyl)piperidin-1-yl)-6-(5-(difluoromethyl)-1,3,4-oxadiazol-2-yl)isoindolin-1-one (optical isomer)], the “HDAC6 inhibitory rate (%) (10 μM)” value amounted to 100%.

In the case of `O=C1c2cc(-c3nnc(C(F)F)o3)ccc2CN1N1CCC(F)(F)CC1c1ccc(F)cc1` (stereo not drawn) [Example 572, 2-(4,4-difluoro-2-(4-fluorophenyl)piperidin-1-yl)-6-(5-(difluoromethyl)-1,3,4-oxadiazol-2-yl)isoindolin-1-one (optical isomer)], the “HDAC6 inhibitory rate (%) (10 μM)” value worked out at 100%.

The assay is the same for the next values; noted with them: 10 μM; wells without enzyme = 100% inhibition; read-out: HDAC6 inhibitory rate (%) (10 μM).
For `Cn1cc(C2CCC(NC(=O)C(F)(F)C(F)(F)F)CC2)c(N2Cc3ccc(-c4nnc(C(F)F)o4)cc3C2=O)n1` (centres unmarked) [Example 532, N-(4-(3-(6-(5-(difluoromethyl)-1,3,4-oxadiazol-2-yl)-1-oxo-1,3-dihydro-2H-isoindol-2-yl)-1-methyl-1H-pyrazol-4-yl)cyclohexyl)-2,2,3,3,3-pentafluoropropanamide], the inhibition at 10 µM turned out to be 99%.

`O=C1c2cc(-c3nnc(C(F)F)o3)ccc2CN1c1ccc(F)cc1C1CCN(C(=O)C(F)(F)C(F)(F)F)CC1` [Example 533, 6-(5-(difluoromethyl)-1,3,4-oxadiazol-2-yl)-2-(4-fluoro-2-(1-(2,2,3,3,3-pentafluoropropanoyl)piperidin-4-yl)phenyl)isoindolin-1-one]: the inhibition at 10 µM came out at 98%.

On to `O=C1c2cc(-c3nnc(C(F)F)o3)ccc2CN1c1ccc(F)cc1C1CCC(NC(=O)C(F)(F)C(F)(F)F)CC1` (centres unmarked) [Example 534, N-(4-(2-(6-(5-(difluoromethyl)-1,3,4-oxadiazol-2-yl)-1-oxo-1,3-dihydro-2H-isoindol-2-yl)-5-fluorophenyl)cyclohexyl)-2,2,3,3,3-pentafluoropropanamide], for which the inhibition at 10 µM was found to be 100%.

As to `O=C1c2cc(-c3nnc(C(F)F)o3)ccc2CN1[C@@H]1CCCC[C@H]1n1nnc2ccccc21` [Example 536, 2-((1R,2R)-2-(1H-benzotriazol-1-yl)cyclohexyl)-6-(5-(difluoromethyl)-1,3,4-oxadiazol-2-yl)isoindolin-1-one], the inhibition at 10 µM is 100%.

Take `O=C1c2cc(-c3nnc(C(F)F)o3)cnc2CN1[C@@H]1CCCC[C@H]1n1nnc2ccccc21` [Example 537, 6-((1R,2R)-2-(1H-benzotriazol-1-yl)cyclohexyl)-3-(5-(difluoromethyl)-1,3,4-oxadiazol-2-yl)-6,7-dihydro-5H-pyrrolo[3,4-b]pyridin-5-one]: the inhibition at 10 µM was 100%.

For `O=C1c2cc(-c3nnc(C(F)F)o3)ccc2CN1[C@@H]1CCCC[C@H]1c1nnc2ccccn12` [Example 547, 6-(5-(difluoromethyl)-1,3,4-oxadiazol-2-yl)-2-((1R,2R)-2-([1,2,4]triazolo[4,3-a]pyridin-3-yl)cyclohexyl)isoindolin-1-one], the inhibition at 10 µM turned out to be 100%.

`Cn1cc(C2CCN(CC(F)(F)C(F)(F)F)CC2)c(N2Cc3ccc(-c4nnc(C(F)F)o4)cc3C2=O)n1` [Example 550, 6-(5-(difluoromethyl)-1,3,4-oxadiazol-2-yl)-2-(1-methyl-4-(1-(2,2,3,3,3-pentafluoropropyl)piperidin-4-yl)-1H-pyrazol-3-yl)isoindolin-1-one]: the inhibition at 10 µM came out at 99%.

As to `O=C1c2cc(-c3nnc(C(F)F)o3)ccc2CN1N1CCCC1c1cccc(F)c1` (centres unmarked) [Example 553, 6-(5-(difluoromethyl)-1,3,4-oxadiazol-2-yl)-2-(2-(3-fluorophenyl)pyrrolidin-1-yl)isoindolin-1-one], the inhibition at 10 µM worked out at 100%.

On to `Cn1cc(C2CCC(NCC(F)(F)C(F)(F)F)CC2)c(N2Cc3ccc(-c4nnc(C(F)F)o4)cc3C2=O)n1` (centres unmarked) [Example 557, 6-(5-(difluoromethyl)-1,3,4-oxadiazol-2-yl)-2-(1-methyl-4-(4-((2,2,3,3,3-pentafluoropropyl)amino)cyclohexyl)-1H-pyrazol-3-yl)isoindolin-1-one], for which the inhibition at 10 µM came out at 99%.

With `O=C1c2cc(-c3nnc(C(F)F)o3)ccc2CN1N1CCC(F)(F)CC1c1cccc(F)c1` (centres unmarked) [Example 560, 2-(4,4-difluoro-2-(3-fluorophenyl)piperidin-1-yl)-6-(5-(difluoromethyl)-1,3,4-oxadiazol-2-yl)isoindolin-1-one], the inhibition at 10 µM amounted to 100%.

With `O=C1c2cc(-c3nnc(C(F)F)o3)ccc2CN1[C@@H]1CCOC[C@H]1n1nnc2cc(Cl)ccc21` [Example 563, 2-((3S,4R)-3-(5-chloro-1H-benzotriazol-1-yl)tetrahydro-2H-pyran-4-yl)-6-(5-(difluoromethyl)-1,3,4-oxadiazol-2-yl)isoindolin-1-one], the inhibition at 10 µM worked out at 100%.

Regarding `O=C(NCC(F)(F)F)C1CC(F)(F)CCN1N1Cc2ccc(-c3nnc(C(F)F)o3)cc2C1=O` (centres unmarked) [Example 564, 1-(6-(5-(difluoromethyl)-1,3,4-oxadiazol-2-yl)-1-oxo-1,3-dihydro-2H-isoindol-2-yl)-4,4-difluoro-N-(2,2,2-trifluoroethyl)piperidine-2-carboxamide], the inhibition at 10 µM is 100%.

`O=C1c2cc(-c3nnc(C(F)F)o3)ccc2CN1N1CCC(F)(F)CC1c1ccc(F)cc1` (centres unmarked) [Example 566, 2-(4,4-difluoro-2-(4-fluorophenyl)piperidin-1-yl)-6-(5-(difluoromethyl)-1,3,4-oxadiazol-2-yl)isoindolin-1-one]: the inhibition at 10 µM is 100%.

As to `Cn1cc(C(=O)NCC(F)(F)F)c(N2Cc3ccc(-c4nnc(C(F)F)o4)cc3C2=O)n1` [Example 567, 3-(6-(5-(difluoromethyl)-1,3,4-oxadiazol-2-yl)-1-oxo-1,3-dihydro-2H-isoindol-2-yl)-1-methyl-N-(2,2,2-trifluoroethyl)-1H-pyrazole-4-carboxamide], the inhibition at 10 µM worked out at 95%.

Turning to `Cn1cc(C(=O)NCC2CC2)c(N2Cc3ccc(-c4nnc(C(F)F)o4)cc3C2=O)n1` [Example 568, N-(cyclopropylmethyl)-3-(6-(5-(difluoromethyl)-1,3,4-oxadiazol-2-yl)-1-oxo-1,3-dihydro-2H-isoindol-2-yl)-1-methyl-1H-pyrazole-4-carboxamide], the inhibition at 10 µM turned out to be 96%.

For the compound `Cn1cc(C(=O)N2CCC(F)(F)CC2)c(N2Cc3ccc(-c4nnc(C(F)F)o4)cc3C2=O)n1` [Example 569, 6-(5-(difluoromethyl)-1,3,4-oxadiazol-2-yl)-2-(4-((4,4-difluoropiperidin-1-yl)carbonyl)-1-methyl-1H-pyrazol-3-yl)isoindolin-1-one], the inhibition at 10 µM is 99%.

As to `O=C1c2cc(-c3nnc(C(F)F)o3)ccc2CN1N1CCCC1c1ccccn1` (centres unmarked) [Example 570, 6-(5-(difluoromethyl)-1,3,4-oxadiazol-2-yl)-2-(2-(pyridin-2-yl)pyrrolidin-1-yl)isoindolin-1-one], the inhibition at 10 µM is 100%.

In the case of `O=C1c2cc(-c3nnc(C(F)F)o3)ccc2CN1c1cccn2cc(C(F)(F)F)nc12` [Example 571, 6-(5-(difluoromethyl)-1,3,4-oxadiazol-2-yl)-2-(2-(trifluoromethyl)imidazo[1,2-a]pyridin-8-yl)isoindolin-1-one], the inhibition at 10 µM came to 73%.

For the origin of these results see US10435399B2, “HDAC6 inhibitory heterocyclic compound” (TAKEDA PHARMACEUTICAL COMPANY LIMITED, priority 2017, dated 2019).
